US9951046B2, “TRPA1 modulators” (Algomedix, Inc., priority 2014, dated 2018)
Read-outs that look alike come from different tables or passages of the source.

Target: T1, human TRPA1 (Homo sapiens, UniProt O75762)
T1 construct: expressed in transfected cells
Assay: Cell-based functional intracellular calcium ([Ca2+]i) assay, Fluo-4/Fluo-8, FlexStation, challenge with reference TRPA1 agonist (FFA, AITC or 4-HNE)
Method in brief: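 Doxycycline-induced (1 μg/ml) HEK293 expressing human TRPA1, with 5 μM ruthenium red during induction, loaded with Fluo-4 or Fluo-8 plus 2 mM probenecid; FlexStation read at 20-25° C, sometimes with 0.1% BSA.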

[1] = HEK293 cells expressing human TRPA1, IC50 class after addition of reference TRPA1 agonist (FFA, AITC or 4-HNE), read-out: human TRPA1-HEK Activity

T1 sequence (O75762 whole entry): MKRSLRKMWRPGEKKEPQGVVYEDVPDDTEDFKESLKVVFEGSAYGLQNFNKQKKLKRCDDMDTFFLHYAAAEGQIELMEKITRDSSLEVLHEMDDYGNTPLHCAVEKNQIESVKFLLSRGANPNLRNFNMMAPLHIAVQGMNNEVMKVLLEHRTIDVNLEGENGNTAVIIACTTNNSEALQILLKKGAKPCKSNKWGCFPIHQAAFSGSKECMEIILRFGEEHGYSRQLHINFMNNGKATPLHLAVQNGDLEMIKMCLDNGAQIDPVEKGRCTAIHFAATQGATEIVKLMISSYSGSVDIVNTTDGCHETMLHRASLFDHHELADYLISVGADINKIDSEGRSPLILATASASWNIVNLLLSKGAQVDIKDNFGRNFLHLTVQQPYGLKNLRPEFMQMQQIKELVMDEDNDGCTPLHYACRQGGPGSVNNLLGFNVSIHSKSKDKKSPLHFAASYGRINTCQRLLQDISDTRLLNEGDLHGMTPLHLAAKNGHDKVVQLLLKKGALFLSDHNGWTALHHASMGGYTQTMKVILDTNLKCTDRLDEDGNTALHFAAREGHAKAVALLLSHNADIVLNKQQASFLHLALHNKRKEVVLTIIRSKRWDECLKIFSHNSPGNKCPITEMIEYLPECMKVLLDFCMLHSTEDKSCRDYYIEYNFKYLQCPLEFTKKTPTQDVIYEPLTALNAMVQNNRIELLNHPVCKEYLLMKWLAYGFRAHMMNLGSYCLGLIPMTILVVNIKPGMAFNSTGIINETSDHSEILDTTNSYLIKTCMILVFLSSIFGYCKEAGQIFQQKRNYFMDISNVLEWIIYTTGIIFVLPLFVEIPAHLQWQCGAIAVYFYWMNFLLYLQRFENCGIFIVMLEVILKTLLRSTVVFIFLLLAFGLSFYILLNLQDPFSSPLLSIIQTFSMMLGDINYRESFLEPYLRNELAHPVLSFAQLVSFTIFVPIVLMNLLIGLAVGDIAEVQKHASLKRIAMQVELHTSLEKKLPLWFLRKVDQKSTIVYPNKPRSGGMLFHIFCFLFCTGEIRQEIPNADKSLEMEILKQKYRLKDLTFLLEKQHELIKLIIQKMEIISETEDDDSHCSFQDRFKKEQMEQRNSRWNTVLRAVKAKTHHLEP

SMILES	IC50 [1] [µM]	IC50 [µM]
N#Cc1ccc(-n2nc(C(=O)N3CCC(n4c(=O)[nH]c5ccc(F)c(F)c54)CC3)cc2-c2cccnc2)c(C(F)(F)F)c1 [Compound 325]	0.001 to 5	–
N#Cc1ccc2[nH]c(=O)n(C3CCN(C(=O)c4cc(-c5cccnc5)n(-c5ccc(F)c(C(F)(F)F)c5)n4)CC3)c2c1 [Compound 240]	0.001 to 5	–
O=C(c1cc(-c2ccncc2)n(-c2cccc(C(F)(F)F)c2)n1)N1CCC2(CC1)C(=O)NCN2c1ccccc1 [Compound 146]	5 to 25	–
O=C(c1cc(-c2ccncc2)n(-c2ccc(C(F)(F)F)c(F)c2)n1)N1CCC(N2C(=O)Cc3ccccc32)CC1 [Compound 98]	–	5 to 25
O=C(c1cc(-c2cccnc2)n(-c2cc(F)c(C(F)(F)F)cc2F)n1)N1CCC(n2c(=O)[nH]c3ccc(F)c(F)c32)CC1 [Compound 223]	0.001 to 5	–
O=C(c1cc(-c2ccc(Cl)nc2)n(-c2ccc(C(F)(F)F)c(F)c2)n1)N1CCC2(CC1)C(=O)NCN2c1ccc(F)cc1 [Compound 238]	0.001 to 5	–
Cc1cc(N2CNC(=O)C23CCN(C(=O)c2cc(-c4cccnc4)n(-c4cc(F)c(F)c(F)c4)n2)CC3)ccc1F [Compound 255]	0.001 to 5	–
N#Cc1cc2[nH]c(=O)n(C3CCN(C(=O)c4cc(-c5cccnc5)n(-c5cc(F)c(F)c(F)c5)n4)CC3)c2cc1F [Compound 235]	0.001 to 5	–
O=C(c1cc(-c2cccnc2)n(-c2ccc(C(F)(F)F)cc2Cl)n1)N1CCC2(CC1)C(=O)NCN2c1ccc(F)c(F)c1 [Compound 218]	0.001 to 5	–
CC1CC2(CCN1C(=O)c1cc(-c3cccnc3)n(-c3ccc(F)c(C(F)(F)F)c3)n1)OC(=O)Nc1ccc(C(F)(F)F)cc12 (centres unmarked) [Compound 292]	5 to 25	–
O=C(c1cc(-c2ccncc2)n(-c2ccc(C(F)(F)F)cc2)n1)N1CCC2(CC1)OCCO2 [Compound 145]	–	5 to 25
O=C(c1cc(-c2cccnc2)n(-c2cc(F)c(F)c(F)c2)n1)N1CCC(n2c(=O)[nH]c3ncccc32)CC1 [Compound 256]	> 25	–
N#Cc1cccc2[nH]c(=O)n(C3CCN(C(=O)c4cc(-c5cccnc5)n(-c5cc(F)c(F)c(F)c5)n4)CC3)c12 [Compound 232]	0.001 to 5	–
O=C(c1cc(-c2cccnc2)n(-c2ccc(C(F)(F)F)c(F)c2)n1)N1CCC2(CC1)C(=O)NCN2c1ccc(F)c(Cl)c1 [Compound 189]	0.001 to 5	–
CCCC1COC2(CCN(C(=O)c3cc(-c4ccncc4)n(-c4ccc(C(F)(F)F)c(F)c4)n3)CC2)O1 (centres unmarked) [Compound 117]	–	> 25
CN1C(=O)NC2(CCN(C(=O)c3cc(-c4ccncc4)n(-c4ccc(C(F)(F)F)cc4)n3)CC2)C1=O [Compound 75]	> 25	–
O=C(c1cc(-c2ccncc2)n(-c2cnccn2)n1)N1CCC2(CC1)NCN(c1ccccc1)C2=O [Compound 137]	> 25	–
O=C(c1nn(-c2ccc(F)c(C(F)(F)F)c2)c2c1CCc1cccnc1-2)N1CCC(n2c(=O)[nH]c3ccc(F)c(F)c32)CC1 [Compound 316]	0.001 to 5	–
CC1COC2(CCN(C(=O)c3cc(-c4ccncc4)n(-c4ccc(F)c(F)c4)n3)CC2)O1 (centres unmarked) [Compound 93]	–	> 25
O=C(c1cc(-c2ccncc2)n(-c2ccc(F)c(F)c2)n1)N1CCN2C(=O)OC[C@@H]2C1 [Compound 94]	> 25	–
Cn1c(=O)c(=O)n(C)c2cc(NC(=O)c3cc(-c4ccncc4)n(-c4cnccn4)n3)ccc21 [Compound 133]	> 25	–
O=C(c1cc(-c2cccnc2)n(-c2ccc(Cl)c(C(F)(F)F)c2)n1)N1CCC2(CC1)C(=O)NCN2c1ccc(F)cc1 [Compound 296]	0.001 to 5	–
O=C1Nc2ccc(F)cc2C2(CCN(C(=O)c3cc(-c4cccnc4)n(-c4cc(F)c(F)c(F)c4)n3)CC2)O1 [Compound 231]	0.001 to 5	–
O=C1CSC2(CCN(C(=O)c3cc(-c4ccncc4)n(-c4ccc(C(F)(F)F)cc4)n3)CC2)N1 [Compound 68]	> 25	–
O=C(c1cc(-c2cccnc2)n(-c2ccc(C(F)(F)F)c(F)c2)n1)N1CCC2(CC1)C(=O)NCN2c1cc(F)c(F)c(F)c1 [Compound 186]	0.001 to 5	–
O=C(c1cc(-c2cccnc2)n(-c2ccc(C(F)(F)F)cc2)n1)N1CCC2(CC1)C(=O)NCN2c1ccc(F)cc1 [Compound 49]	0.001 to 5	–
